Reference: US11591365B2, “BCL9 peptides and variants thereof” (WntRx Pharmaceuticals Inc., priority 2017, dated 2023)
Where a SMILES comes first, the peptide text is derived from it. Bridges are numbered along the chain shown (N, C = ends). [ ]: non-standard residue; d: D form. 2Nal = N[C@@H](Cc1ccc2ccccc2c1)C(=O)O; NMeR = CN[C@@H](CCCNC(=N)N)C(=O)O; hArg = N=C(N)NCCCC[C@H](N)C(=O)O; Cha = N[C@@H](CC1CCCCC1)C(=O)O; Cba = N[C@@H](CC1CCC1)C(=O)O; S5 = C=CCCC[C@](C)(N)C(=O)O

System: Colo320DM
Test: Colo320DM cell viability
Assay type: cell-based, human
Description: In some embodiments, a polypeptide described herein inhibits binding of BLC9 to β-catenin when assessed in a cell-viability assay. In some embodiments, the cell-viability assay is a CellTiterGlo luminescent assay, wherein the viability of cells is quantitatively measured. Various cell lines, transformed cell lines or primary cells derived from a healthy subject or subject suffering from a disease can be used in this assay.

Row | SMILES | IC50
1 | CC[C@H](C)[C@@H]1NC(=O)[C@@](C)(NC(=O)[C@H](CCCNC(=N)N)NC(=O)[C@H](CC(C)C)NC(=O)[C@@H](NC(=O)[C@H](CCC(N)=O)NC(=O)[C@H](CC(C)C)NC(=O)[C@H](CO)NC(=O)[C@H](CCCNC(=N)N)NC(=O)[C@H](CCC(N)=O)NC(=O)[C@H](CCCNC(=N)N)NC(=O)[C@H](Cc2c[nH]cn2)NC(C)=O)[C@@H](C)O)CCCC=CCCC[C@@](C)(C(=O)N[C@@H](CC2CCC2)C(=O)N[C@@H](Cc2ccc3ccccc3c2)C(N)=O)NC(=O)[C@H](CCCCNC(=N)N)NC(=O)[C@H](CCC(N)=O)NC1=O [SEQ ID NO: 171, HRQRSLQTLRXIQ(homoR)X(CBA)(2-Nal)] (Ac-HRQRSLQTLR[S5]IQ[hArg][S5][Cba][2Nal]-NH2; staple 11-15) | 4760 nM
2 | CC[C@H](C)[C@@H]1NC(=O)[C@@](C)(NC(=O)[C@H](CCCNC(=N)N)NC(=O)[C@H](CC(C)C)NC(=O)[C@@H](NC(=O)[C@H](CCC(N)=O)NC(=O)[C@H](CC2CCC2)NC(=O)[C@H](CO)NC(=O)[C@H](CCCNC(=N)N)NC(=O)[C@H](CCC(N)=O)NC(=O)[C@H](CCCNC(=N)N)NC(=O)[C@H](Cc2c[nH]cn2)NC(C)=O)[C@@H](C)O)CCCC=CCCC[C@@](C)(C(=O)N[C@@H](CC2CCC2)C(=O)N[C@@H](Cc2ccc3ccccc3c2)C(N)=O)NC(=O)[C@H](CCCNC(=N)N)NC(=O)[C@H](CCC(N)=O)NC1=O [SEQ ID NO: 156, HRQRS(CBA)QTLRXIQRX(CBA)(2-Nal)] (Ac-HRQRS[Cba]QTLR[S5]IQR[S5][Cba][2Nal]-NH2; staple 11-15) | 2630 nM
3 | CC[C@H](C)[C@@H]1NC(=O)[C@@](C)(NC(=O)[C@H](CCCNC(=N)N)NC(=O)[C@H](CC(C)C)NC(=O)[C@@H](NC(=O)[C@H](CCC(N)=O)NC(=O)[C@H](CC(C)C)NC(=O)[C@@H](NC(=O)[C@H](CCCNC(=N)N)NC(=O)[C@H](CCC(N)=O)NC(=O)[C@H](CCCNC(=N)N)NC(=O)[C@H](Cc2c[nH]cn2)NC(C)=O)[C@@H](C)O)[C@@H](C)O)CCCC=CCCC[C@@](C)(C(=O)N[C@@H](CC2CCC2)C(=O)N[C@@H](Cc2ccc3ccccc3c2)C(N)=O)NC(=O)[C@H](CCCNC(=N)N)NC(=O)[C@H](CCC(N)=O)NC1=O [SEQ ID NO: 159, HRQRTLQTLRXIQRX(CBA)(2-Nal)] (Ac-HRQRTLQTLR[S5]IQR[S5][Cba][2Nal]-NH2; staple 11-15) | 2480 nM
4 | CC[C@H](C)[C@@H]1NC(=O)[C@@](C)(NC(=O)[C@H](CCCNC(=N)N)NC(=O)[C@H](CC(C)C)NC(=O)[C@@H](NC(=O)[C@H](CCC(N)=O)NC(=O)[C@H](CC(C)C)NC(=O)[C@H](CO)NC(=O)[C@H](CCCNC(=N)N)N(C)C(=O)[C@H](CCC(N)=O)NC(=O)[C@H](CCCNC(=N)N)NC(=O)[C@H](Cc2c[nH]cn2)NC(C)=O)[C@@H](C)O)CCCC=CCCC[C@@](C)(C(=O)N[C@@H](CC2CCCCC2)C(=O)N[C@@H](Cc2ccc3ccccc3c2)C(N)=O)NC(=O)[C@H](CCCNC(=N)N)NC(=O)[C@H](CCC(N)=O)NC1=O [SEQ ID NO: 184, HRQ(N-MeArg)SLQTLRXIQRX(Cha)(2-Nal)] (Ac-HRQ[NMeR]SLQTLR[S5]IQR[S5][Cha][2Nal]-NH2; staple 11-15) | 2430 nM
5 | CC[C@H](C)[C@@H]1NC(=O)[C@@](C)(NC(=O)[C@H](CCCNC(=N)N)NC(=O)[C@H](CC(C)C)NC(=O)[C@]2(C)CCCC=CCCC[C@](C)(NC(=O)[C@H](CCCNC(=N)N)NC(=O)[C@H](CCC(N)=O)NC(=O)[C@H](CCCNC(=N)N)NC(=O)[C@H](Cc3c[nH]cn3)NC(C)=O)C(=O)N[C@@H](CC(C)C)C(=O)N[C@@H](CCC(N)=O)C(=O)N2)CCCC=CCCC[C@@](C)(C(=O)N[C@@H](CC2CCC2)C(=O)N[C@@H](Cc2ccc3ccccc3c2)C(N)=O)NC(=O)[C@H](CCCNC(=N)N)NC(=O)[C@H](CCC(N)=O)NC1=O [SEQ ID NO: 90, HRQRXLQXLRZIQRZ(CBA)(2-Nal)] (Ac-HRQR[S5]LQ[S5]LR[S5]IQR[S5][Cba][2Nal]-NH2; staple 5-8, 11-15) | 1830 nM
